Results taken from patent publication US7501513B2, “Immunosuppressive effects of pteridine derivatives” (4 AZA Bioscience NV, priority 2003, dated 2009).
pIC50: −log10 of the molar value.

Legend:
B16BL/6 melanoma cells = assay: Inhibition of the metastasis of melanoma cells in mice; format: in vivo, C57BL/6 mice; conditions: 20 mg/kg intraperitoneously, three times a week for two weeks; control group 80%
Description: C57BL/6 mice were injected with 1.5×10^6 B16BL/6 melanoma cells and were divided into 2 groups. Five days after the injection of the tumor cells, the two groups of animals were administered intraperitoneously, three times a week for two subsequent weeks, either (treated group) 20 mg/kg of 2-amino-4-morpholino-6-(3,4-dimethoxyphenyl)pteridine (a compound known from WO 00/39129) or (control group) the vehicle (5% DMSO in phosphate buffered saline). At the end of the experiment, all surviving tumor-bearing mice were sacrificed and examined in order to assess the absence or presence of the black metastases in inguinal and/or para-aortic lymph nodes (macroscopic metastasis). The findings were confirmed by histology, and the experiment done twice.

IL-5 = assay: Inhibition of the release of IL-5; format: cell-based; conditions: at 0.1 μM/l
Description: (§1) 2-amino-4-morpholino-6-(3,4-dimethoxyphenyl)pteridine (a compound known from WO 00/39129) was tested, according to experimental procedures well established in the art, in the inhibition of two cytokines, IL-5 and IL-10, known to be involved in the development of asthma and other forms of severe allergic conditions.

IL-10 = assay: Inhibition of the release of IL-10; format: cell-based; conditions: at 0.1 μM/l
Description: as §1

[1] = tested on: Peripheral blood mononuclear cells; assay: Mixed lymphocyte reaction (MLR) test; format: cell-based, human; conditions: Homo sapiens, PBMC; Table 1; 50% suppression of the MLR
Description: (§2) Pteridine derivatives were first dissolved (10 mM) in dimethylsulfoxide (hereinafter referred as DMSO) and further diluted in culture medium before use for the following in vitro experiments. The commercially available culture medium consisted of RPMI-1640+10% foetal calf serum (FCS). Some pteridine derivatives described the previous examples were tested in the following lymphocyte activation tests:
(§3) Peripheral blood mononuclear cells (hereinafter referred as PBMC) were isolated from heparinized peripheral blood by density gradient centrifugation over Lymphoprep (Nycomed, Maorstua, Norway). Allogeneic PBMC or Eppstein-Barr Virus-transformed human B cells [commercially available under the trade name RPMI1788 (ATCC name CCL156)] which strongly express B7-1 and B7-2 antigens were used as stimulator cells after irradiation with 30 Gy. MLR was performed in triplicate wells. After 5 days incubation at 37° C., 1 μCi [^3H]-thymidine was added to each cup. After a further 16 hours incubation, cells were harvested and counted in a β-counter. Inhibition of proliferation by a compound (drug) described in some of the previous examples was counted using the formula:
(§4) [formula] wherein cpm is the thymidine count per minute. The MLR assay is regarded by those skilled in the art as an in vitro analogue of the transplant rejection since it is based on the recognition of allogeneic major histocompatibility antigens on the stimulator leukocytes, by responding lymphocytes. Assays for CD3 and CD 28
Pteridine derivatives were first dissolved (10 mM) in dimethylsulfoxide (hereinafter referred as DMSO) and further diluted in culture medium before use for the following in vitro experiments. The commercially available culture medium consisted of RPMI-1640+10% foetal calf serum (FCS). Some pteridine derivatives described in the previous examples (as indicated in table 3 below) were tested in the following mixed lymphocyte reaction (MLR) assay.
as §3, with “CCL156)]which” for “CCL156)] which”
as §4, with “lymphocytes.” for “lymphocytes. Assays for CD3 and CD 28”

[2] = tested on: Highly purified T cells stimulated by anti-CD28 mAb; assay: CD28 assay: T-cell proliferation stimulated by anti-CD28 mAb + PMA (BrdU); format: cell-based, human; conditions: Homo sapiens; 50% reduction in T-cell proliferation
Description: as §2
(§5) T cells were purified by removing non-T cells. Briefly, monocytes were removed by cold agglutination. The resulting lymphoid cells were further purified by a cell enrichment immunocolumn [Cellect Human T commercially available from Biotex, Edmonton, Alberta, Canada)] by a process of negative selection. More than 95% of the B cells were removed with this procedure. After depletion, the resulting T cell preparation was highly purified, i.e. these cells could not be activated by phytohaemagglutinin (PHA) or rIL-2 alone at concentrations capable of stimulating RBMC prior to deletion.
(§6) Highly purified T cells (10^6/ml) were stimulated by immobilized anti-CD3 or anti-CD28 monoclonal antibodies (hereinafter referred as mAb) in the presence of phorbol myristate acetate (hereinafter referred as PMA). Anti-CD3 mAb (available from CLB, Amsterdam, Netherlands) were fixed on a 96-microwell plates by incubating the wells with 50 μl of mAb solution (1/800 dilution in culture medium). For anti-CD28 mAb (available from CLB, Amsterdam, Netherlands) 50 μl (1/650 dilution in culture medium) was added directly to the wells. Further, a 20 μl PMA (commercially available from Sigma, St. Louis, Mo., USA) solution (final concentration: 0.5 ng/ml) was added. Subsequently, 20 μl of a pteridine derivative described in the previous examples were added by serial dilution in triplicate wells. Finally 100 μl of the T-cell suspension (10^6/ml) was added. After 48-hour incubation at 37° C. in 5% CO2, 20 μl of a bromo-deuridine (hereinafter referred as BrdU) 100 μM solution (commercially available as Cell Proliferation Elisa from Boehringer-Mannheim Belgium) was added to each well. After a further overnight incubation, T-cell proliferation was measured using a calorimetric immuno-assay for qualification of cell proliferation based on the incorporation of BrdU during DNA synthesis. Optical density (hereinafter referred as OD) was measured by a Behring EL311 plate reader at 450 nm (reference wavelength: 690 nm). Inhibition of proliferation by the pteridine derivative (drug) was counted while using the formula: […]

Peripheral blood T cells = assay: In vivo leukocyte activation and immunosuppression whole blood assay (ConA stimulation, FACScan); parameters: species or system mice; conditions: 30 mg/kg per day i.p.; for TCR+, CD69+ peripheral blood T cells after ConA: 2 hours before ConA, baseline 0.5%; for TCR+, CD69+ peripheral blood T cells after ConA / TCR+, IL-2R+ peripheral blood T cells after ConA: untreated up to 3%; for ConA-stimulated CD71 up-regulation on T cells: baseline 4.8%, untreated 9.3% and 5.5% after 1 and 2 days; for CD134 expression on peripheral blood T cells after ConA: untreated up to 6.6% within 2 days, baseline […]
Description: Inbred mice (e.g. AKR strain), weighting from 20 to 30 g, were stimulated by intraperitoneal injection with mitogens specific for T cells (e.g. Concanavalin A, hereinafter referred as ConA, 500 μg per mouse), B cells or monocytes/macrophages (e.g. LPS 20 μg per mouse). […] Peripheral blood was collected 24, 36, 48, and respectively 72 hours after stimulation for immune fluorescence staining and FACScan analysis.
FACScan analysis proceeded as follows: heparinized whole blood (50 μl) was removed of red blood cells by incubation with a lysing buffer. The remaining leukocytes were double-stained with phycoerythrin-conjugated antibodies specific for T cells (e.g. T cell receptor TCR), B cells (e.g. CD45R/B220 (commercially available from Pharmingen) or monocytes/macrophages (e.g. F4/80) (commer-cially available from Serotec) in combination with FITC-conjugated antibodies against various cell surface markers such as CD69 (early activation molecule), CD25 (IL-2 receptor), CD71 (transferring receptor), B7-1/2 (ligand for the co-stimulatory molecule CD28) and CD11b (complement receptor 3). Cells were examined by flow cytometry using CellQuest software (commercially available from Decton Dickinson).

[3] = tested on: Highly purified T cells stimulated by anti-CD3 mAb; assay: CD3 assay: T-cell proliferation stimulated by immobilized anti-CD3 mAb + PMA (BrdU); format: cell-based, human; conditions: Homo sapiens; 50% reduction in T-cell proliferation; read-out: CD 3 IC50
Description: as §2, §5, §6

COc1ccc(-c2cnc3nc(N)nc(N4CCOCC4)c3n2)cc1OC [2-amino-4-morpholino-6-(3,4-dimethoxyphenyl)pteridine]
animals with metastases (inguinal and/or para-aortic lymph nodes) (B16BL/6 melanoma cells): 33% | inhibition at 0.1 µM (IL-5): 70% | inhibition at 0.1 µM (IL-10): 39%

CCOc1nc(N)nc2ncc(-c3ccc(OC)c(OC)c3)nc12 [Example 30, 2-amino-6-(3,4-dimethoxyphenyl)-4-ethoxy-pteridine]
pIC50 [1]: 6.05 | pIC50 [2]: 6.15 | TCR+, CD69+ peripheral blood T cells after ConA (Peripheral blood T cells): 1.6% | ConA-stimulated CD71 up-regulation on T cells (Peripheral blood T cells): baseline levels | TCR+, IL-2R+ peripheral blood T cells after ConA (Peripheral blood T cells): 1.5% | CD134 expression on peripheral blood T cells after ConA (Peripheral blood T cells): 3.5% | pIC50 [3]: 6.15

COc1ccc(-c2cnc3nc(N)nc(OC(C)C)c3n2)cc1OC [Example 45, 2-amino-6-(3,4-dimethoxyphenyl)-4-isopropoxypteridine]
pIC50 [1]: 6.40 | pIC50 [2]: 5.77 | TCR+, CD69+ peripheral blood T cells after ConA (Peripheral blood T cells): 2.4% | ConA-stimulated CD71 up-regulation on T cells (Peripheral blood T cells): baseline levels | TCR+, IL-2R+ peripheral blood T cells after ConA (Peripheral blood T cells): 1.7% | CD134 expression on peripheral blood T cells after ConA (Peripheral blood T cells): 4.2% | pIC50 [3]: 5.17
